Legend:
[1] = tested on: rat hindpaw incision model; experiment: rat hindpaw incisional pain model, tactile allodynia; type: in vivo; conditions: 30 mg/kg IP, 24 hours post-surgery
Procedure: Protocol. A time course experiment was also performed with (−)-beloxepin in the hindpaw incision model. At 24 hours post-surgery, rats received vehicle or (−)-beloxepin (30 mg/kg IP). Rats were tested for tactile allodynia at 30, 60, 120 and 240 minutes after administration of (−)-beloxepin.
Protocol. Another time course experiment was performed with (+)-beloxepin in the hindpaw incision model. At 24 hours post-surgery, rats received vehicle or (+)-beloxepin (30 mg/kg IP). Rats were tested for tactile allodynia at 30, 60, 120 and 240 minutes after administration of (+)-beloxepin.

[2] = tested on: L5 SNL rats; experiment: L5 Single Nerve Ligation model of neuropathic pain, tactile allodynia (von Frey); type: in vivo, rat
Procedure: Protocol. The antiallodynic activity of (−)-beloxepin was tested in vivo using the L5—Single Nerve Ligation model of non-nociceptive neuropathic pain as described in LaBuda & Little, 2005, J. Neurosci. Methods 144:175-181. The test animals were placed in a Plexiglas chamber (10 cm×20 cm×25 cm) and habituated for 15 minutes. The chamber was positioned on top of a mesh screen so that von Frey monofilaments could be presented to the plantar surface of both hindpaws. Measurement of tactile sensitivity for each hind paw were obtained using the up/down method (Dixon, 1980, Annu. Rev. Pharmacol. Toxicol. 20:441-462) with seven Frey monofilaments (0.4, 1, 2, 4, 6, 8 and 15 grams). Each trial started with a von Frey force of 2 grams delivered to the right hind paw for approximately 1-2 seconds and then the left hind paw. If there was no withdrawal response, the next higher force was delivered. If there was a response, the next lower force was delivered. This procedure was performed until no response was made at the highest force (15 grams) or until four stimuli were administered following the initial response. The 50% paw withdrawal threshold for each paw was calculated using the following formula: [Xth]log=[vFr]log+ky, where [vFr] is the force of the last von Frey used, k=0.2249 which is the average interval (in log units) between the von Frey monofilaments, and y is a value that depends upon the pattern of withdrawal responses (Dixon, 1980, supra). […] Testing for tactile sensitivity was performed twice and the mean 50% withdrawal value assigned as the tactile sensitivity for the right and left paws for each animal.
Results. The antiallodynic effects produced by (−)-beloxepin (30 mg/kg IP) and (+)-beloxepin (30 mg/kg IP) in L5 SNL rats 8 days post surgery are illustrated in FIG. 1. In this experiment, at 8 days post surgery, rats were treated with vehicle or beloxepin enantiomers (30 mg/kg IP) and tested for tactile allodynia at 30 min post treatment. […] No side effects were observed following treatment with either enantiomer.
The antiallodynic effects produced by (−)-beloxepin (30 mg/kg IP) in L5 SNL rats 14 days post surgery are illustrated in FIG. 2. In this experiment, at 14 days post surgery, rats were treated with vehicle or (−)-beloxepin and tested for tactile allodynia at 30, 60, 120 and 240 min post treatment. Vehicle treated rats were tested at 30 min post treatment.
Protocol. A time course experiment was performed with (−)-beloxepin (60 mg/kg PO) in L5 SNL rats at 7 days post-surgery. Rats were tested at 30, 60, 120, and 240 minutes post-drug.
Protocol. A time course experiment was also performed with (+)-beloxepin (60 mg/kg PO) in L5 SNL rats at 14 days post-surgery. Rats were tested at 30, 60, 120, and 240 minutes post-drug.

[3] = target: T1, cloned human NE transporter (hNET) (Homo sapiens, UniProt P23975); experiment: NE transporter binding assay, [3H]nisoxetine
T1 construct: expressed in transfected cells; host or cells: CHO cells
Procedure: Protocols. For the NE transporter binding assay, [^3H]nisoxetine (1.0 nM) was incubated with various concentrations of test compounds for 2 hours at 4° C. with membranes prepared from Chinese hamster ovary cells (CHO) cells heterologously expressing the cloned human NE transporter (hNET). Bound radioactivity was determined by scintillation spectroscopy.

[4] = target: T2, cloned human 5HT2C receptor (Homo sapiens, UniProt P28335); experiment: 5HT2C receptor binding assay, [3H]mesulergine; conditions: CHO membranes
T2 construct: expressed in transfected cells; host or cells: CHO cells
T2 sequence (P28335 33-458): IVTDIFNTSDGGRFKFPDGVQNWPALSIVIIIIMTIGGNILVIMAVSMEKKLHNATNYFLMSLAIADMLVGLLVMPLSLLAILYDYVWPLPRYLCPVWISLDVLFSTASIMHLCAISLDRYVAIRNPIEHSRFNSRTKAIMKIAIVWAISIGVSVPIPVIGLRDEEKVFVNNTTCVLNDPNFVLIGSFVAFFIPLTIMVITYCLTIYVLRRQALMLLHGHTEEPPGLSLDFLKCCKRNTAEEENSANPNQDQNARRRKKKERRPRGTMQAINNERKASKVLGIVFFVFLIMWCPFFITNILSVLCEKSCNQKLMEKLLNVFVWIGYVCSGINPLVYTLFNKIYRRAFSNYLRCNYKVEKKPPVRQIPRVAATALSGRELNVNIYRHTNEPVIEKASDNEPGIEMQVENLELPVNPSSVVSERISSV
Procedure: For the 5HT2C receptor binding assay, [^3H]mesulergine (1.0 nM) was incubated for 60 min at 37° C. with membranes prepared from Chinese hamster ovary cells heterologously expressing the cloned human 5-HT2C receptor according to the method of Stam et al., 1994, Eur. J. Pharmacol. 269:339-348. Various concentrations of test compound were added and bound radioactivity was determined by scintillation counting. Non-specific binding was determined in the presence of 10 μM RS102221. The Ki value for the test compound was determined using standard methods.

[5] = target: T3, cloned human 5HT2A receptor (Homo sapiens, UniProt P28223); experiment: 5HT2A receptor binding assay, [3H]ketanserin; conditions: HEK-293 membranes
T3 construct: expressed in transfected cells; host or cells: HEK-293 cells
Procedure: For the 5HT2A receptor binding assay, [^3H]ketanserin (0.5 nM) was incubated for 60 min at 22° C. with membranes prepared from HEK-293 cells heterologously expressing the cloned human 5-HT2A receptor according to the method of Bonhaus et al., 1995, Brit. J. Pharmacol. 115:622-628. Various concentrations of test compound were added and bound radioactivity was determined by scintillation counting. Non-specific binding was determined in the presence of 1.0 μM unlabeled ketanserin. The Ki value for the test compound was determined using standard methods.

[6] = target: T4, cloned human 5HT2B receptor (Homo sapiens, UniProt P41595); experiment: 5HT2B receptor binding assay, [125I]DOI; conditions: CHO membranes
T4 construct: expressed in transfected cells; host or cells: CHO cells
Procedure: For the 5HT2B receptor binding assay, [^125I](±)[…] (DOI) (0.2 nM) was incubated for 15 min at 37° C. with membranes prepared from Chinese hamster ovary cells heterologously expressing the cloned human 5HT2B receptor according to the method of Choi et al., 1994, FEBS Lett 352:393-399. Various concentrations of test compound were added and bound radioactivity was determined by scintillation counting. Non-specific binding was determined in the presence of 1.0 μM unlabeled DOI. The Ki value for the test compound was determined using standard methods.

[7] = tested on: rat 50° C. hot plate model; experiment: rat 50° C. hot plate assay; type: in vivo; conditions: for level of antinociception, positive control: 3 mg/kg SC, 30 min
Procedure: Protocol. Rats were treated with vehicle, 30 mg/kg IP of (−)-beloxepin, or 30 mg/kg IP of (+)-beloxepin and then were placed on a hot plate (50° C.) 30, 60, or 120 minutes after administration of the vehicle or beloxepin enantiomer. Rats treated with 3 mg/kg SC of morphine and tested 30 min post-treatment were used as a positive control in these experiments.

[8] = target: T5, human recombinant CYP2D6 (Homo sapiens, UniProt P10635); experiment: CYP2D6 inhibition, MAMC substrate; type: in vitro ADME
T5 construct: purchased BD Bioscience
Procedure: Protocol. […] The source of the enzyme was microsomes containing human recombinant CYP2D6 obtained from BD Bioscience. Conversion of MAMC to 7-hydroxy-4-(aminomethyl)coumarin was measured using a PerkinElmer Fusion with a 390 nm excitation filter and a 460 nm emission filter.

[9] = tested on: pain intensity in study completers; conditions: cited from earlier work
[10] = 30 mg/kg IP, 8 days post surgery, 30 min post treatment

T1 sequence (P23975 whole entry): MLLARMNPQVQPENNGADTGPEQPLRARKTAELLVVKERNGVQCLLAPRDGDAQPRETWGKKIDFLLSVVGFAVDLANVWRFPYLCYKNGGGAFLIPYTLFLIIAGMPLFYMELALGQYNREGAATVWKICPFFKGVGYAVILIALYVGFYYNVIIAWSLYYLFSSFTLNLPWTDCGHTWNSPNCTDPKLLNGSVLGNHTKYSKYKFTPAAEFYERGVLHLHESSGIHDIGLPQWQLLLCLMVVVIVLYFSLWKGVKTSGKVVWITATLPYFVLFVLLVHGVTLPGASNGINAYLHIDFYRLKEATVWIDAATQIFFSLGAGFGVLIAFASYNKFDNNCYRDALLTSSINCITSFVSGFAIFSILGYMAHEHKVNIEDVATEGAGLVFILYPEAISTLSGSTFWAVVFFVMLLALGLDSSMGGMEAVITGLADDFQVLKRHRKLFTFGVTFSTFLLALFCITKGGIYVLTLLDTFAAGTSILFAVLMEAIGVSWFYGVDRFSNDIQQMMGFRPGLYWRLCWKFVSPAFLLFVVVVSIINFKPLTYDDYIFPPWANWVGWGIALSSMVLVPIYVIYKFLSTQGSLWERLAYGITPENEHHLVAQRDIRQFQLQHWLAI
T5 sequence (P10635 whole entry): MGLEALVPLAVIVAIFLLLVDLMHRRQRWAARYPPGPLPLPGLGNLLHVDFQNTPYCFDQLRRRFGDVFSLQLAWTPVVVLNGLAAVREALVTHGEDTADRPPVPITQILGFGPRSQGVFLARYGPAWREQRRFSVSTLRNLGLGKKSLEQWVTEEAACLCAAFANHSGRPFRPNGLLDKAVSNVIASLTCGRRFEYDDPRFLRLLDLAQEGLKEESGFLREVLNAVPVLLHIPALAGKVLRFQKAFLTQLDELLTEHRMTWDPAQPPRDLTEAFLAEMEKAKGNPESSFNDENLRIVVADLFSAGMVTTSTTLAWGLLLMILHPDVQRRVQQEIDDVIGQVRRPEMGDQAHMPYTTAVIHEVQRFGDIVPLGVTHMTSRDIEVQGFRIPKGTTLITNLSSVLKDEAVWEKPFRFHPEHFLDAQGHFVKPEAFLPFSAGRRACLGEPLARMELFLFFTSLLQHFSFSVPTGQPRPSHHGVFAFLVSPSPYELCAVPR
T3 sequence (P28223 whole entry): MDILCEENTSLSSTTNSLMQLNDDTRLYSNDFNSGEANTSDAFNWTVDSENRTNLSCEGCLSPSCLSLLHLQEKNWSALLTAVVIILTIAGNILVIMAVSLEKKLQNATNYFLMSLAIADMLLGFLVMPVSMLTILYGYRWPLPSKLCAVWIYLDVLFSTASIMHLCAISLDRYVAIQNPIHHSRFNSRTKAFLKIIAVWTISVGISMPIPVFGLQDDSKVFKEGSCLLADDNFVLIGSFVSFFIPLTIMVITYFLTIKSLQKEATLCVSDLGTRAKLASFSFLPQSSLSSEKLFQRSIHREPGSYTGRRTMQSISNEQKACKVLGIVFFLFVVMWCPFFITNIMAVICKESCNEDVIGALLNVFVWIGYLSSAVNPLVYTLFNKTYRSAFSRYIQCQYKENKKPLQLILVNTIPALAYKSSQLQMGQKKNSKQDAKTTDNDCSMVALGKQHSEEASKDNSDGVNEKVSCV
T4 sequence (P41595 whole entry): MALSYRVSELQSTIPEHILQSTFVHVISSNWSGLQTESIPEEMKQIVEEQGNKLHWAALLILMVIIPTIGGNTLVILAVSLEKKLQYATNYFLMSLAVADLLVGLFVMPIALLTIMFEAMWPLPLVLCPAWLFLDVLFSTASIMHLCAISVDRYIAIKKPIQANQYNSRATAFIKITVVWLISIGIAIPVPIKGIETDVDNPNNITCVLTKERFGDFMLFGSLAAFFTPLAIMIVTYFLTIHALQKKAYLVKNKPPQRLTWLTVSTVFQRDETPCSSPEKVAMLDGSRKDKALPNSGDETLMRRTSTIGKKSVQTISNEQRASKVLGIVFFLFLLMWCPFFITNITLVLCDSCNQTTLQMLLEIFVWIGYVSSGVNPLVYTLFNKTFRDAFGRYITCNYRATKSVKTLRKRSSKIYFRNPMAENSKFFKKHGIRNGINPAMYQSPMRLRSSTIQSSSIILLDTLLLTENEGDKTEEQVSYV

Cc1cccc2c1Oc1ccccc1C1(O)CCN(C)CC21 (single isomer, unassigned; (-)) [(−)-beloxepin]
hindpaw withdrawal threshold, % of the threshold value for vehicle treated rats ([1]; 30 minute time point): 426%
maximum hindpaw withdrawal threshold ([1]; 30 minute time point): ~19 grams
antiallodynic effect ([1]; tested 30, 60, 120, 240 min): significant antiallodynic effect at the 30 and 120 minute time point
antiallodynia, % of the threshold of vehicle-treated L5 SNL rats [2, 10]: 444%
antiallodynic effect [2, 10]: significant antiallodynia
maximal efficacy, % of the threshold of vehicle-treated rats ([2]; 30 mg/kg IP, 14 days post surgery): 635%
antiallodynic effect ([2]; 30 mg/kg IP, 14 days post surgery, tested 30, 60, 120, 240 min): significant antiallodynic effects at the 30 and 60 min time points
antiallodynic effect ([2]; 60 mg/kg PO, 7 days post-surgery, tested 30, 60, 120, 240 min): significant antiallodynic effects at the 60 and 120 minute time points
higher affinity at the NET than the (+) enantiomer ([3]; (−) vs (+) enantiomer): approximately 8 fold
Ki ([3]; membranes of CHO cells expressing hNET, read-out: NET Ki): 0.39 µM
Ki [4]: > 10 µM
Ki [5]: > 10 µM
Ki [6]: > 10 µM
antinociceptive activity ([7]; 30 mg/kg IP, 30, 60, 120 min): robust antinociceptive activity at 30, 60, and 120 minutes after treatment
peak antinociception ([7]; 30 mg/kg IP, 30 min post-treatment): 79±10 % MPE
IC50 [8]: 4.37 µM

Fc1ccc([C@@H]2CCNC[C@H]2COc2ccc3c(c2)OCO3)cc1 [paroxetine]
reduction in pain intensity [9]: 26%

CNCCCC12CCC(c3ccccc31)c1ccccc12 [maprotiline]
reduction in pain intensity [9]: 45%

CN1CC[C@]23c4c5ccc(O)c4O[C@H]2[C@@H](O)C=C[C@H]3[C@H]1C5 [morphine, reference compound]
level of antinociception, positive control ([7]; 'in these experiments'): 61±7 % MPE
level of antinociception, positive control ([7]; (+)-beloxepin experiment (FIG. 8)): 85±7 % MPE
level of antinociception, positive control ([7]; (−)-beloxepin experiment (FIG. 7)): 65±11 % MPE
